In PubChem BioAssay (NCI):
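In this assay, cells in 96-well plates receive the compound at five concentrations for 48 hours. Endpoints are linearly interpolated between the surrounding concentrations. GI50 = concentration required for 50% inhibition of growth. TGI denotes the concentration required for complete inhibition of growth.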

Experiments:
Assay in all cases: inhibition of tumour cell growth, NCI panel, 48 h
HT29 colon = system: HT29 colon
NCI-H23 lung = system: NCI-H23 lung
786-0 renal = system: 786-0 renal
HOP-62 NSCLC = system: HOP-62 NSCLC
NCI-H460 lung = system: NCI-H460 lung
HCT-15 colon = system: HCT-15 colon
LOX IMVI melanoma = system: LOX IMVI melanoma
SNB-19 CNS = system: SNB-19 CNS
COLO 205 colon = system: COLO 205 colon
HL-60(TB) leukemia = system: HL-60(TB) leukemia

Structure (SMILES)	TGI (HT29 colon) [µM]	TGI (NCI-H23 lung) [µM]	TGI (786-0 renal) [µM]	TGI (HOP-62 NSCLC) [µM]	TGI (NCI-H460 lung) [µM]	TGI (HCT-15 colon) [µM]	TGI (LOX IMVI melanoma) [µM]	TGI (SNB-19 CNS) [µM]	TGI (COLO 205 colon) [µM]	TGI (HL-60(TB) leukemia) [µM]	GI50 (HT29 colon) [µM]	GI50 (HOP-62 NSCLC) [µM]	GI50 (HCT-15 colon) [µM]	GI50 (HL-60(TB) leukemia) [µM]	GI50 (NCI-H23 lung) [µM]	GI50 (LOX IMVI melanoma) [µM]	GI50 (COLO 205 colon) [µM]	GI50 (NCI-H460 lung) [µM]	GI50 (SNB-19 CNS) [µM]
Cn1c(=O)c2[nH]c(N/N=N/c3nncs3)nc2n(C)c1=O	> 100	> 100	> 100	> 100	> 100	> 100	> 100	> 100	> 100	–	–	–	–	–	–	–	–	–	–
C#CCNC(CSSCC(N)C(=O)O)C(=O)O (stereo not drawn)	> 100	> 100	> 100	> 100	–	> 100	–	> 100	> 100	–	–	–	–	–	–	–	–	–	–
CC12CCC(CC(=O)/C1=C(/Br)I)C2(C)C (stereo not drawn)	25	27.9	30.2	32.1	> 100	31.2	–	30.7	31.9	12	–	–	–	–	–	–	–	–	–
C[C@@H]1OC(=O)C[C@H]2CC(=O)N(CCC3CN(C(=O)OCc4ccccc4)c4ccccc43)C[C@@H]21 (stereo partly drawn)	> 100	> 100	> 100	> 100	> 100	> 100	–	> 100	> 100	–	–	–	–	–	–	–	–	–	–
O=C(/C=C(/C=C/c1ccc2[nH]ccc2c1)OB(F)F)/C=C/c1ccc2[nH]ccc2c1	> 100	–	–	> 100	–	4.43	–	–	–	> 100	1.47	3.38	0.653	1.88	–	–	–	–	–
COc1ccc(N2CC(=O)N(C(=O)COc3ccc(OCC(=O)N4C(=O)CN(c5ccc(OC)cc5)C4=S)cc3)C2=S)cc1	> 100	> 100	> 100	–	> 100	> 100	–	> 100	> 100	–	–	–	–	–	–	–	–	–	–
Fc1ccc(C(OCCN2CCN(CCCc3ccccc3)CC2)c2ccc(F)cc2)cc1	12.3	15.3	–	17.7	15.3	13.4	15.6	14.5	10.1	16	–	–	–	–	–	–	–	–	–
CC(=O)O[C@H]1CC(C)(C)C(=C=C/C(C)=C/C=C/C=C/C=C(C)/C=C2C=C(/C=C/[C@@]34O[C@]3(C)C[C@@H](O)CC4(C)C)C(=O)O/2)[C@](C)(O)C1	> 100	18.1	85.9	32	> 100	35	–	> 100	> 100	4.9	–	–	–	–	–	–	–	–	–
CCO/C(=N/S(=O)(=O)C(F)(F)F)N(C(C)C)C(C)C	> 100	> 100	> 100	–	> 100	> 100	> 100	> 100	> 100	> 100	–	–	–	–	–	–	–	–	–
CCOC(=O)C(C#N)(Cc1c[nH]c2ccccc12)NC(C)=O (stereo not drawn)	> 100	> 100	–	> 100	> 100	> 100	> 100	–	> 100	> 100	–	–	–	–	–	–	–	–	–
CCc1n[nH]c(=O)n1CCCCCCCCCCCCn1c(CC)n[nH]c1=O	> 100	94.4	> 100	> 100	71.9	> 100	99	> 100	75.5	–	–	–	–	–	–	–	–	–	–
CCOC(=O)c1ccc(-n2[nH]nc(C(N)=O)c2=O)cc1	> 100	> 100	> 100	> 100	> 100	> 100	–	> 100	> 100	–	–	–	–	–	–	–	–	–	–
COC1CC(N)(c2ccccc2)C(O)C(C)O1 (stereo not drawn)	–	> 100	> 100	> 100	> 100	> 100	> 100	> 100	> 100	> 100	–	–	–	–	–	–	–	–	–
O=c1[nH]cc(NCCCl)c(=O)[nH]1	> 100	> 100	> 100	> 100	> 100	> 100	> 100	> 100	> 100	–	–	–	–	–	–	–	–	–	–
COc1cc(C2c3c(ccc4ccccc34)C(=O)C3CCC(=O)N32)cc(OC)c1OC (stereo not drawn)	> 50	> 50	> 50	> 50	> 50	> 50	–	> 50	> 50	> 50	–	–	–	–	–	–	–	–	–
Cc1ccc2c(c1)-c1nc(N)c(C#N)c(-c3ccc(Cl)cc3)c1CCS2(=O)=O	63.2	> 100	> 100	–	> 100	> 100	> 100	> 100	65.6	47	–	–	–	–	–	–	–	–	–
C[C@H](c1ccccc1)N1C(=O)[C@@H](O)[C@H]1[C@H](CO)OCc1ccccc1	> 100	> 100	> 100	> 100	–	> 100	> 100	> 100	> 100	–	–	–	–	–	–	–	–	–	–
CC(C)(C)c1ccccc1N1C(=O)c2ccc3c4c(ccc(c24)C1=O)N(c1ccccc1C(C)(C)C)C3=O	> 100	> 100	> 100	> 100	> 100	> 100	–	> 100	> 100	–	–	–	–	–	–	–	–	–	–
CCCCN(CCCC)Cc1cc(Nc2ccnc3cc(Cl)ccc23)ccc1O	> 100	> 100	–	> 100	–	–	> 100	–	> 100	> 100	0.491	2.54	–	5.88	8.23	2.81	6.68	–	–
CCNCCNC(=O)c1ccc(I)cc1	> 100	> 100	> 100	–	> 100	> 100	> 100	> 100	–	> 100	–	–	–	–	–	–	–	–	–
Cc1cc([NH-])c([NH-])cc1C.[Cl][Pt+2][Cl]	40	37	–	> 77	> 43.8	32.3	17.6	> 100	34.9	75.4	16.6	> 42.8	10.9	17	14.2	7.9	14.8	4.97	10.5
C=CCC1(C#N)C(=S)NC2=C(C(=O)CC(C)(C)C2)C1c1ccccc1 (stereo not drawn)	> 100	> 100	> 100	–	–	> 100	> 100	> 100	> 100	> 100	–	–	–	–	–	–	–	–	–
